Assay results taken from patent publication US10718756B2, “Mitochondrial apoptotic sensor” (The Regents of the University of California, priority 2016, dated 2020).

Experiments:
[1] = system: isolated mitochondria (HeLa and RS4;11 cells); assay: Graphene sensor measurement of extra-mitochondrial buffer pH of tethered isolated mitochondria; design: species or system mammalian
Source text: Here, is presented an electronic method to detect extra-mitochondrial pH of isolated mitochondria, based on tethering the mitochondria to one-atom thin graphene. The mitochondria are tethered via graphene bound antibodies which recognize the mitochondrial outer membrane protein, TOM20. Graphene is an excellent conductor and changes in the pH surrounding the mitochondria can change the graphene conductance and be detected electrically. Being optically transparent, the graphene layer also permits optical interrogation of the mitochondria concurrent with analysis of ionic changes.
An isolation buffer containing 225 mM mannitol, 75 mM sucrose, 0.5 mM EGTA, 20 mM HEPES, 0.5% (w/v) BSA, 1× protease inhibitor, pH 7.2 with 1 M KOH was used. […]
After mitochondria isolation, about 6 μg of mitochondrial protein of isolated mitochondria was loaded to a graphene device and incubated for 15 min at room temperature. […] The electrical measurement of Ids versus time and the fluorescence time-lapse measurement of TMRE signal were collected. […] In contrast, fluorescence images were taken once every 5 s for the experiments with CCCP or every 2 min for the experiments with BIM-BH3. […]
Control experiments were carried out in a similar manner with the only difference being the lack of isolated mitochondria. Software was used to analyze all electrical data and the fluorescence data that were exported from ImageJ software. […]

[2] = system: isolated mitochondria (HeLa and RS4;11 cells); assay: TMRE fluorescence measurement of inner membrane potential (ΔΨm) of tethered isolated mitochondria; design: species or system mammalian; conditions: TMRE signal
Method: Before isolation, the confluent cells were stained with 100 nM MITOTRACKER™ Green FM and 40 nM TMRE for 1 hour. Subsequent isolation steps used solutions with 40 nM TMRE because TMRE is a potentiometric dye, which fluctuates in and out of the mitochondria depending on their inner membrane potential. 40 nM was determined as the optimal concentration. Using an inverted microscope with two LED excitation sources (490 nm & 565 nm the red and green fluorescence signals from the MITOTRACKER™ and TMRE were visualized with 20× objective at 200 μm×300 μm, exposure time one second. To process and analyze the images, ImageJ software was used. For the entire field of view analysis, fluorescence intensity was measured from the field of view. In contrast, for single mitochondrion analysis, regions of interest enclosing the mitochondria were defined and three more identical copies of that region of interest were used to define the background noise. Fluorescence signal of the mitochondria was assigned as the measured signal subtracting the noise average. […] The electrical measurement of Ids versus time and the fluorescence time-lapse measurement of TMRE signal were collected. […] In contrast, fluorescence images were taken once every 5 s for the experiments with CCCP or every 2 min for the experiments with BIM-BH3. […]

[3] = exogenous agent, after BIM-BH3 induced MOMP

Molecule	buffer pH (pHbuffer) ([1]; agent added to mitochondria on graphene device in KCl buffer with 5 mM succinate, 2 μM rotenone)	ΔΨm ([2]; agent added to mitochondria on graphene device in KCl buffer)	buffer acidification after BIM-BH3 induced MOMP [1, 3]	ΔΨm after BIM-BH3 induced MOMP [2, 3]
N#CC(C#N)=NNc1cccc(Cl)c1 [CCCP]	increase	decrease		
cytochrome c [cytc]			blocks buffer acidification	rescues
